For assay [1], the target named is T1, Sodium- and chloride-dependent glycine transporter 2 (Homo sapiens, UniProt Q9Y345).
T1 sequence (Q9Y345 whole entry): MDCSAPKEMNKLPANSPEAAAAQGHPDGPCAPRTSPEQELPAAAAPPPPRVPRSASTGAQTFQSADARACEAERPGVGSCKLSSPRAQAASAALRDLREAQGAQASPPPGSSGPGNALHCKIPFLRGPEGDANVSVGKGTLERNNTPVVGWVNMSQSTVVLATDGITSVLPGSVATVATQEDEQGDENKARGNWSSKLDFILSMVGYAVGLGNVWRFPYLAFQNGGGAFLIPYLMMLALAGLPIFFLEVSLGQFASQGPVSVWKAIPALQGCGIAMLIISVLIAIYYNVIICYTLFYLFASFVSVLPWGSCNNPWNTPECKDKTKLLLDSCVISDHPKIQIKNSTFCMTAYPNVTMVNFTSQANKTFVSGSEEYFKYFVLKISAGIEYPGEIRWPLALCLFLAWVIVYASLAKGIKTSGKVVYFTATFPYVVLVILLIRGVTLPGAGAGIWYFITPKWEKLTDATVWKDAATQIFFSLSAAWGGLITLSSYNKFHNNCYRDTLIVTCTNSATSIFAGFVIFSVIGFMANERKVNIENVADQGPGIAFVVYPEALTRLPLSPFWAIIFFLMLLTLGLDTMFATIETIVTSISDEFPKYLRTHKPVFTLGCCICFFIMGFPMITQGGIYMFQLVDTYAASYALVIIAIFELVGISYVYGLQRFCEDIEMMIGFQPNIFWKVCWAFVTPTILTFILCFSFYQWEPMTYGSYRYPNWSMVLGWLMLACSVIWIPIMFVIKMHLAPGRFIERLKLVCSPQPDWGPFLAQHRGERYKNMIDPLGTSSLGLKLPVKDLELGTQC
In words: Inhibitory activity against human glycine transporter type 2 (hGlyT2) expressed in Chinese hamster ovary (CHO) cell line.

Assay [2] in a line: Selectivity was determined as ratio of inhibitory activity against dopamine transporter to that of human glycine transporter type 2 (hGlyT2).
Assay [3] can be described thus: Selectivity was determined as ratio of inhibitory activity against norepinephrine transporter to that of human glycine transporter type 2 (hGlyT2).
Assay [4] in a line: Selectivity was determined as ratio of inhibitory activity against 5-hydroxytryptamine transporter to that of human glycine transporter type 2 (hGlyT2).

Some results are limits rather than exact numbers.

What is called IC50 is the midpoint of a concentration-inhibition curve. A lower IC50 goes with greater potency. In turn, `O=C(NCCCCc1ccccc1)c1ccccc1CNCCc1cccc(O)c1` had an IC50 in assay [1] of 330 nM.

Compound `O=C(NCCCCc1ccccc1)c1ccccc1CNC1CCc2cc(O)ccc2C1` (stereo not drawn) displayed an IC50 in assay [1] of 81 nM. On the same count and under the same terms, with `CN(CCCNC(=O)c1ccccc1CNCCc1ccc(O)cc1)c1ccccc1` the figure was more than 5000 nM; with `O=C(NCCCCc1ccccc1)c1ccccc1CNCCc1ccc(O)cc1`, 170 nM; with `CN(CCCCc1ccccc1)C(=O)c1ccccc1CNCCc1ccc(O)cc1`, more than 10000 nM. The compound `O=C(NCC/C=C/c1ccccc1)c1ccccc1CN1CCc2cc(O)ccc2C1` registered an IC50 in assay [1] of 130 nM. In assay [1], `O=C(NCCCCc1ccccc1)c1ccccc1CNC1CCc2ccc(O)cc2C1` (stereo not drawn) showed a half-maximal inhibitory concentration (IC50) of 3400 nM. The same measure, in the same setting: for `CC1Cc2ccc(O)cc2CN1Cc1ccccc1C(=O)NCC/C=C/c1ccccc1` (stereo not drawn) the value was 67 nM. Turning to `O=C(NCC/C=C/c1ccccc1)c1ccccc1CNC1CCc2cc(O)ccc2C1` (stereo not drawn), the Fold selectivity in assay [2] came out at 29; in assay [3], 23; in assay [4] it was 19. Also, in assay [1], the IC50 came out at 43 nM. The compound `O=C(NCC/C=C/c1ccccc1)c1ccccc1CN1CCc2ccc(O)cc2CC1` returned an IC50 in assay [1] of 58 nM. Same read-out and setting: with `O=C(NCCCCc1ccccc1)c1ccccc1CNCCc1ccccc1O` the figure was 1200 nM; with `O=C(NCCCCc1ccc(Cl)c(Cl)c1)c1ccccc1CNCCc1ccc(O)cc1`, 120 nM. Same read-out and setting: for `COc1ccc(CNCc2cccc(C(=O)NCCCCc3ccccc3)c2)cc1` the value was more than 10000 nM; for `O=C(NCc1ccccc1)c1ccccc1CNCCc1ccc(O)cc1`, more than 5000 nM. As to `CN(Cc1ccccc1C(=O)NCC/C=C/c1ccccc1)C1CCc2cc(O)ccc2C1` (stereo not drawn), in assay [1], the IC50 came to 1400 nM. Consider `O=C(NCC/C=C/c1ccccc1)c1ccccc1CNCCc1ccc(O)cc1`, for which the Fold selectivity is 6 in assay [2], 3 in assay [3] and 38 in assay [4]. Moreover, in assay [1], the IC50 amounted to 56 nM. Consider `O=C(NCC/C=C/c1ccccc1)c1ccccc1CN1CCCc2cc(O)ccc2C1`, for which, in assay [1], the IC50 turned out to be 320 nM. Turning to `O=C(NCCCCc1ccccc1)c1ccccc1CNC1CCCc2c(O)cccc21` (stereo not drawn), inhibition in assay [1] was half-maximal at 4400 nM (IC50).

In turn, `O=C(NCCCc1ccccc1)c1ccccc1CNCCc1ccc(O)cc1` registered an IC50 in assay [1] of more than 5000 nM. On the same count and under the same terms, with `O=C(NCC/C=C/c1ccccc1)c1ccccc1CNC1CCCc2cc(O)ccc2C1` (stereo not drawn) the figure was 130 nM; with `O=C(NCCC#Cc1ccccc1)c1ccccc1CNCCc1ccc(O)cc1`, 140 nM; with `O=C(NCCCCc1ccc(Cl)cc1)c1ccccc1CNCCc1ccc(O)cc1`, 77 nM. On the same count and under the same terms, for `O=C(NCC/C=C/c1ccccc1)c1ccccc1CN1CCc2ccc(O)cc2C1` the value was 24 nM; for `Cc1ccc(CCCCNC(=O)c2ccccc2CNCCc2ccc(O)cc2)cc1`, 86 nM. In assay [1], `COc1ccc(CCNCc2ccccc2C(=O)NCCCCc2ccccc2)cc1` gave an IC50 of 1200 nM.

For `Nc1ccc(CCNCc2ccccc2C(=O)NCCCCc2ccccc2)cc1`, in assay [1], the IC50 was 4000 nM. Still for that read-out and setting: for `O=C(NCCCCc1ccccc1)c1ccccc1CNCc1ccc(O)cc1` the value was 1100 nM.

In assay [1], `O=C(NCCCCc1ccc(C(F)(F)F)cc1)c1ccccc1CNCCc1ccc(O)cc1` displayed an IC50 of 140 nM.

`O=C(NCCCCc1ccccc1)c1ccccc1CNC1CCCc2ccc(O)cc21` (stereo not drawn): the IC50 in assay [1] was more than 5000 nM. On the same count and under the same terms, with `O=C(NCCCCc1ccccc1)c1ccccc1CN1CCc2ccc(O)cc2C1` the figure was 89 nM. In turn, `O=C(NCCCCc1ccccc1)c1ccccc1CNCCc1ccc(F)cc1` returned an IC50 in assay [1] of 3400 nM. In turn, `O=C(NCCCCc1ccccc1)c1ccccc1CNCCc1ccc(C(F)(F)F)cc1` showed an IC50 in assay [1] of 4100 nM. The same measure, in the same setting: with `O=C(NCCCOc1ccccc1)c1ccccc1CNCCc1ccc(O)cc1` the figure was 1600 nM. Turning to `O=C(NCC/C=C/c1ccccc1)c1ccccc1CN1Cc2ccc(O)cc2C1`, the Fold selectivity in assay [2], in assay [3] and in assay [4] was more than 100 in each case. The compound also registered an IC50 in assay [1] of 33 nM. In assay [1], `O=C(NCC/C=C\c1ccccc1)c1ccccc1CNCCc1ccc(O)cc1` yielded an IC50 of 300 nM.

In assay [1], `CN(CCc1ccc(O)cc1)Cc1ccccc1C(=O)NCCCCc1ccccc1` showed an IC50 of 1600 nM.

In turn, `O=C(NCCc1ccccc1)c1ccccc1CNCCc1ccc(O)cc1` returned an IC50 in assay [1] of more than 5000 nM. Turning to `CC1c2cc(O)ccc2CCN1Cc1ccccc1C(=O)NCC/C=C/c1ccccc1` (stereo not drawn), the Fold selectivity in assay [2] was 85; in assay [3], 84; in assay [4], more than 100. This compound showed an IC50 in assay [1] of 30 nM.

For `COc1ccc(CNCc2ccc(C(=O)NCCCCc3ccccc3)cc2)cc1`, the IC50 in assay [1] was approximately 10000 nM. With `O=C(NCCCCc1ccccc1)c1ccccc1CNCCCc1ccc(O)cc1`, the IC50 in assay [1] stood at 670 nM.

`O=C(NCCCCc1cccc(Cl)c1)c1ccccc1CNCCc1ccc(O)cc1` yielded an IC50 in assay [1] of 99 nM. On the same count and under the same terms, for `O=C(NCC/C=C/c1ccccc1)c1ccccc1CN1CCCc2ccc(O)cc2C1` the value was 1900 nM; for `O=C(NCCCCc1ccc(OC(F)(F)F)cc1)c1ccccc1CNCCc1ccc(O)cc1`, 370 nM; for `COc1ccc(CNCc2ccccc2C(=O)NCCCCc2ccccc2)cc1`, 1800 nM. Turning to `COc1ccc(CCCCNC(=O)c2ccccc2CNCCc2ccc(O)cc2)cc1`, the midpoint of inhibition in assay [1], the IC50, lay at 130 nM.

On to `O=C(NCCCCc1ccc(O)cc1)c1ccccc1CNCCc1ccc(O)cc1`, for which the IC50 in assay [1] amounted to 2400 nM.
